Measured values: paper PMC4877957 (BMC Microbiology, 2016)

Assays:
LcpRr = target: T1, LcpRr (Rhodococcus rhodochrous, UniProt A0A165QBG6); assay: HPLC product assay (C35 peak), polyisoprene latex; settings: read-out: % inhibition at 1 mM
T1 sequence (A0A165QBG6 31-408): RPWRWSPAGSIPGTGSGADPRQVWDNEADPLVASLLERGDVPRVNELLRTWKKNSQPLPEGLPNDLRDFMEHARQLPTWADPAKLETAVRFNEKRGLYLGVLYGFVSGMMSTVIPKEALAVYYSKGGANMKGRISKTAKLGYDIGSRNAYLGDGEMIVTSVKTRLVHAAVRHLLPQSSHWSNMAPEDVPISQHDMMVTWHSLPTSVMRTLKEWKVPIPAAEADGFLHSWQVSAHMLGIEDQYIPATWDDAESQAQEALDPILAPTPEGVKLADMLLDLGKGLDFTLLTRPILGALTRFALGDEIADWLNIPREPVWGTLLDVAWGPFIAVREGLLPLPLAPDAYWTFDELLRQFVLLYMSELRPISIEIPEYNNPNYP

RoxAXsp = target: T2, RoxAXsp (Xanthomonas sp. 35Y, UniProt Q7X0P3); assay: HPLC of polyisoprene cleavage products; format: biochemical; settings: poly(cis-1,4-isoprene) latex, oxygen; 23 °C
T2 construct: gene roxA; purified as described previously; c-type dihaem
T2 sequence (Q7X0P3 entry or part of it): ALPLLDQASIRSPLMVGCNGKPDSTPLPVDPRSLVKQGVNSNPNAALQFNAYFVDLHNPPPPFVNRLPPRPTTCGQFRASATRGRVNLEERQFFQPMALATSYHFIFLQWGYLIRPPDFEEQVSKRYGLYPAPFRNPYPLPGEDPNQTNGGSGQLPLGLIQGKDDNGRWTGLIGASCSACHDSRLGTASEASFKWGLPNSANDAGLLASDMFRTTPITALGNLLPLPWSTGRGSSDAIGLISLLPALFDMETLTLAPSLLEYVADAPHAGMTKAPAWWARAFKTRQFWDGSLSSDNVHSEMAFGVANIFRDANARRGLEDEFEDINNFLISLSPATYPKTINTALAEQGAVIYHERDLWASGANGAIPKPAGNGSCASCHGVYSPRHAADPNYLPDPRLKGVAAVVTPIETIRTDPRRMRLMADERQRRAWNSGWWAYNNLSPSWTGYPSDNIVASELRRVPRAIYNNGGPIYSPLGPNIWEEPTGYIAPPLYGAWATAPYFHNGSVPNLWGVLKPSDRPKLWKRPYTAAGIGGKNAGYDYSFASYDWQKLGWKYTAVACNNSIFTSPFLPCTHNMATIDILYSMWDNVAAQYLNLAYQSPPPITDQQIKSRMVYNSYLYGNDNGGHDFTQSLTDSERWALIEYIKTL

With `CCN(CC)C(=S)S` [diethyl dithiocarbamate] the inhibition at 1000 µM (LcpRr) was 82%.
With `CC(=O)CCC=C(C)CCC=C(C)CCC=O` [ODTD, 12-oxo-4,8-dimethyl-trideca-4,8-diene-1-al] the “HPLC of polyisoprene cleavage products” value (RoxAXsp) was “ODTD was the main cleavage product of RoxAXsp”.
